Source: ChEMBL document CHEMBL1135401, “Pharmacophore mapping of a series of 2,4-diamino-5-deazapteridine inhibitors of Mycobacterium avium complex dihydrofolate reductase” (J Med Chem, 2002)

Assays:
Dihydrofolate reductase [1] = target: T1, Dihydrofolate reductase (Mycobacterium avium, UniProt O30463); assay: Antimycobacterial activity against Mycobacterium avium complex dihydrofolate reductase (MAC DHFR)
T1 sequence (O30463 whole entry): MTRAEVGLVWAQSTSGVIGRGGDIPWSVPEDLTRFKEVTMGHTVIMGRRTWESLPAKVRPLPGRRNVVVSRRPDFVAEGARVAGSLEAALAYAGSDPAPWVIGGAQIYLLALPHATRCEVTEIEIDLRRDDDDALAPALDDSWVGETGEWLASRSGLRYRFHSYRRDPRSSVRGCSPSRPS

Dihydrofolate reductase [2] = target: T2, Dihydrofolate reductase (Homo sapiens, UniProt P00374); assay: Antimycobacterial activity against human dihydrofolate reductase (hDHFR)
T2 sequence (P00374 whole entry): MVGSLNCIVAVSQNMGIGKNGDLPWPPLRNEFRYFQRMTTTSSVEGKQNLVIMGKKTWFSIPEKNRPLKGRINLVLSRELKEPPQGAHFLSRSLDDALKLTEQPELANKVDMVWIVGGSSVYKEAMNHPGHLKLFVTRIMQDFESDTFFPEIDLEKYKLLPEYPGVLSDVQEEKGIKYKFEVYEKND

Dihydrofolate reductase [3] = target: T1, Dihydrofolate reductase; assay: Antimycobacterial activity scale was evaluated and found to be highly active against MAC Dihydrofolate reductase
Dihydrofolate reductase [4] = target: T2, Dihydrofolate reductase; assay: Antimycobacterial activity against Human dihydrofolatereductase (hDHFR)
Dihydrofolate reductase [5] = target: T2, Dihydrofolate reductase

| SMILES | IC50 (Dihydrofolate reductase [1]) | IC50 (Dihydrofolate reductase [2]) | IC50 (Dihydrofolate reductase [3]) | IC50 (Dihydrofolate reductase [4]) | IC50 (Dihydrofolate reductase [5]) |
| --- | --- | --- | --- | --- | --- |
| Cc1cc(NCc2cnc3nc(N)nc(N)c3c2C)c(Cl)cc1F | 0.78 nM | 33 nM |  |  |  |
| Cc1cc(Br)cc(C)c1NCc1cnc2nc(N)nc(N)c2c1C | 5.3 nM | 1900 nM |  |  |  |
| Cc1c(Cl)cccc1NCc1cnc2nc(N)nc(N)c2c1C | 0.82 nM | 5.2 nM |  |  |  |
| Cc1c(CNc2cc(Br)ccc2Br)cnc2nc(N)nc(N)c12 | 0.7 nM | 4.6 nM |  |  |  |
| Cc1c(CNc2c3ccccc3cc3ccccc23)cnc2nc(N)nc(N)c12 | 620 nM |  |  |  |  |
| Cc1ccc(Cl)cc1NCc1cnc2nc(N)nc(N)c2c1C | 0.79 nM | 6.1 nM |  |  |  |
| Cc1c(CNc2cc(Cl)ccc2Cl)cnc2nc(N)nc(N)c12 | 0.89 nM | 8 nM |  |  |  |
| Cc1cc(C)c(NCc2cnc3nc(N)nc(N)c3c2C)c(Cl)c1 | 3.8 nM | 850 nM |  |  |  |
| Cc1c(CNc2ccc3ncccc3c2)cnc2nc(N)nc(N)c12 | 0.95 nM | 7.1 nM |  |  |  |
| COc1cc(-c2ccccc2)ccc1NCc1cnc2nc(N)nc(N)c2c1C | 0.91 nM | 68 nM |  |  |  |
| CCc1c(CNc2cc(C(F)(F)F)ccc2OC)cnc2nc(N)nc(N)c12 | 0.88 nM | 3.6 nM |  |  |  |
| Cc1c(CNC2CCCc3ccccc32)cnc2nc(N)nc(N)c12 (centres undefined) | 280 nM | 3400 nM |  |  |  |
| Cc1ccc(NCc2cnc3nc(N)nc(N)c3c2C)cc1Br | 0.6 nM | 3.7 nM |  |  |  |
| Cc1cc(Br)ccc1NCc1cnc2nc(N)nc(N)c2c1C | 0.85 nM | 5.9 nM |  |  |  |
| COc1cc(SCc2cnc3nc(N)nc(N)c3c2C)cc(OC)c1OC | 4.5 nM | 1200 nM |  |  |  |
| Cc1c(CNc2cnc3ccccc3c2)cnc2nc(N)nc(N)c12 | 1.2 nM | 12 nM |  |  |  |
| Cc1ccc(Cl)c(NCc2cnc3nc(N)nc(N)c3c2C)c1 | 0.95 nM | 44 nM |  |  |  |
| CCc1c(CNc2cc(OC)ccc2OC)cnc2nc(N)nc(N)c12 | 2.8 nM | 1000 nM |  |  |  |
| Cc1c(CNc2ccc3c(c2)Cc2ccccc2-3)cnc2nc(N)nc(N)c12 | 0.86 nM | 6.7 nM |  |  |  |
| COc1ccc(OC)c(SCc2cnc3nc(N)nc(N)c3c2C)c1 | 23 nM | 2500 nM |  |  |  |
| Cc1c(CNc2ccc(Cl)c3ccccc23)cnc2nc(N)nc(N)c12 | 0.43 nM | 2 nM |  |  |  |
| Cc1cc(NCc2cnc3nc(N)nc(N)c3c2C)ccc1Br | 0.87 nM | 6.1 nM |  |  |  |
| Cc1cc(Cl)ccc1NCc1cnc2nc(N)nc(N)c2c1C |  | 2.8 nM |  |  |  |
| COCc1c(CNc2cc(OC)ccc2OC)cnc2nc(N)nc(N)c12 | 2400 nM | 31000 nM |  |  |  |
| Cc1c(CNc2cc(F)ccc2F)cnc2nc(N)nc(N)c12 | 0.9 nM | 69 nM |  |  |  |
| COCc1c(CNc2ccc(OC)c(OC)c2)cnc2nc(N)nc(N)c12 | 1200 nM | 6100 nM |  |  |  |

| SMILES | IC50 (Dihydrofolate reductase [1]) | IC50 (Dihydrofolate reductase [2]) | IC50 (Dihydrofolate reductase [3]) | IC50 (Dihydrofolate reductase [4]) | IC50 (Dihydrofolate reductase [5]) |
| --- | --- | --- | --- | --- | --- |
| CCCOc1ccc(OCCC)c(NCc2cnc3nc(N)nc(N)c3c2C)c1 | 1 nM | 7300 nM |  |  |  |
| Cc1c(CNc2ccc3ccccc3c2)cnc2nc(N)nc(N)c12 | 0.76 nM | 10 nM |  |  |  |
| Cc1c(CNc2ccc3c4c(cccc24)-c2ccccc2-3)cnc2nc(N)nc(N)c12 | 1 nM | 6.2 nM |  |  |  |
| COc1cc(CCc2cnc3nc(N)nc(N)c3c2C)cc(OC)c1 | 1.5 nM | 990 nM |  |  |  |
| Cc1c(CNC2c3ccccc3-c3ccccc32)cnc2nc(N)nc(N)c12 | 320 nM | 5300 nM |  |  |  |
| COCc1c(CNc2cc(OC)c(OC)c(OC)c2)cnc2nc(N)nc(N)c12 | 550 nM | 1300 nM |  |  |  |
| Cc1c(CNc2cc(C(F)(F)F)ccc2Br)cnc2nc(N)nc(N)c12 | 0.82 nM | 3.2 nM |  |  |  |
| CCCOc1ccc(NCc2cnc3nc(N)nc(N)c3c2C)cc1OC | 0.93 nM | 15 nM | < 10 nM |  |  |
| Cc1c(CNc2cccc3ncccc23)cnc2nc(N)nc(N)c12 | 0.98 nM | 4.3 nM |  |  |  |
| COc1cc(OC)cc(N(C)Cc2cnc3nc(N)nc(N)c3c2C)c1 | 0.73 nM | 8.7 nM |  |  |  |
| Cc1c(CSc2ccc(Cl)cc2)cnc2nc(N)nc(N)c12 | 3.6 nM | 590 nM |  |  |  |
| Nc1nc(N)c2cc(CNc3cccc4ccccc34)cnc2n1 | 86 nM | 820 nM |  |  |  |
| COc1ccc(OC)c(NCc2cnc3nc(N)nc(N)c3c2C)c1 | 1.1 nM | 1000 nM |  |  |  |
| COc1ccc(C(F)(F)F)cc1N(C)Cc1cnc2nc(N)nc(N)c2c1C | 1.2 nM | 36 nM |  |  |  |
| Cc1c(CN(C)c2cccc3c2CCCC3)cnc2nc(N)nc(N)c12 | 1.9 nM | 710 nM |  |  |  |
| COc1ccc(SCc2cnc3nc(N)nc(N)c3c2C)cc1OC | 1.5 nM | 440 nM |  |  |  |
| Cc1cccc(SCc2cnc3nc(N)nc(N)c3c2C)c1 | 16 nM | 850 nM |  |  |  |
| COc1cc(NCc2cnc3nc(N)nc(N)c3c2)cc(OC)c1OC | 240 nM | 3900 nM |  |  |  |
| Cc1ccc(C)c(NCc2cnc3nc(N)nc(N)c3c2C)c1 | 0.92 nM | 57 nM |  |  |  |
| Cc1c(CNc2ccc(Cl)cc2)cnc2nc(N)nc(N)c12 | 0.84 nM | 27 nM |  |  |  |
| Nc1nc(N)c2cc(CNc3ccc(Cl)cc3)cnc2n1 | 73 nM | 670 nM |  |  |  |
| COc1cc(NCc2cnc3nc(N)nc(N)c3c2C)cc(OC)c1OC | 0.82 nM | 4.7 nM |  |  |  |
| COc1cc(NCc2cnc3nc(N)nc(N)c3c2C)cc(OC)c1 | 20 nM |  |  | 15 nM |  |
| Cc1c(CSc2cccc3ccccc23)cnc2nc(N)nc(N)c12 | 4.6 nM | 440 nM |  |  |  |
| COc1ccc(C)c(NCc2cnc3nc(N)nc(N)c3c2C)c1 | 0.4 nM | 150 nM |  |  |  |
| CCOc1ccc(OCC)c(N(C)Cc2cnc3nc(N)nc(N)c3c2C)c1 | 1.4 nM | 1000 nM |  |  |  |

| SMILES | IC50 (Dihydrofolate reductase [1]) | IC50 (Dihydrofolate reductase [2]) | IC50 (Dihydrofolate reductase [3]) | IC50 (Dihydrofolate reductase [4]) | IC50 (Dihydrofolate reductase [5]) |
| --- | --- | --- | --- | --- | --- |
| Cc1c(CNc2cccc3ccccc23)cnc2nc(N)nc(N)c12 | 0.81 nM | 4.3 nM |  |  | < 100 nM |
| COc1cc(NCc2cnc3nc(N)nc(N)c3c2C)cc(C(F)(F)F)c1 | 0.93 nM | 5.5 nM |  |  |  |
| Cc1c(CSc2cccc(Cl)c2)cnc2nc(N)nc(N)c12 | 3.9 nM | 420 nM |  |  |  |
| COc1cccc(SCc2cnc3nc(N)nc(N)c3c2C)c1 | 2.7 nM | 500 nM |  |  |  |
| CCOc1ccc(OCC)c(NCc2cnc3nc(N)nc(N)c3c2C)c1 |  | 2300 nM |  |  |  |
| COc1ccc(C)cc1NCc1cnc2nc(N)nc(N)c2c1C | 0.86 nM | 300 nM |  |  |  |
| COc1ccc(C(F)(F)F)cc1NCc1cnc2nc(N)nc(N)c2c1C | 0.66 nM | 2.7 nM |  |  |  |
| Cc1c(CNc2cccc3c2CCCC3)cnc2nc(N)nc(N)c12 | 0.93 nM | 142 nM |  |  |  |
| COc1ccc(NCc2cnc3nc(N)nc(N)c3c2C)cc1OC | 0.7 nM | 5.1 nM |  |  |  |
| COc1ccc(OC)c(CCc2cnc3nc(N)nc(N)c3c2C)c1 | 47 nM | 2700 nM |  |  |  |
| COc1cc(Cl)c(C)cc1NCc1cnc2nc(N)nc(N)c2c1C | 0.94 nM | 10 nM |  |  |  |
| Cc1c(CNc2ccc(OC(F)F)cc2)cnc2nc(N)nc(N)c12 | 1.1 nM | 20 nM |  |  |  |
| COCc1c(CNc2ccc(Cl)cc2)cnc2nc(N)nc(N)c12 |  | 2600 nM |  |  |  |
| Cc1c(CNc2cccc3cnccc23)cnc2nc(N)nc(N)c12 | 0.87 nM | 4 nM |  |  |  |
| Cc1ccc(F)cc1NCc1cnc2nc(N)nc(N)c2c1C | 0.85 nM | 19 nM |  |  |  |
| Cc1c(CNc2ccccc2OC(F)F)cnc2nc(N)nc(N)c12 | 0.87 nM | 277 nM |  |  |  |
| Cc1ccc(NCc2cnc3nc(N)nc(N)c3c2C)cc1Cl | 0.9 nM | 6.7 nM |  |  |  |
| Cc1ccc(F)c(NCc2cnc3nc(N)nc(N)c3c2C)c1 | 1.1 nM | 250 nM |  |  |  |
| COc1ccc(NCc2cnc3nc(N)nc(N)c3c2C)cc1F | 0.91 nM | 14 nM |  |  |  |
| CCOc1ccc(NCc2cnc3nc(N)nc(N)c3c2C)cc1OC | 1.1 nM | 18 nM |  |  |  |
| CCc1c(CNc2cc(C)ccc2OC)cnc2nc(N)nc(N)c12 | 3.1 nM | 370 nM |  |  |  |
| Cc1c(CNc2cc(C(F)(F)F)ccc2F)cnc2nc(N)nc(N)c12 | 0.86 nM | 4.1 nM |  |  |  |
| Cc1c(CNc2ccc3ccc4cccc5ccc2c3c45)cnc2nc(N)nc(N)c12 | 0.88 nM | 3.8 nM |  |  |  |
| Cc1c(CNc2cccc(Cl)c2)cnc2nc(N)nc(N)c12 | 0.82 nM | 17 nM |  |  |  |
| Cc1c(CNc2ccccc2Cl)cnc2nc(N)nc(N)c12 | 0.91 nM | 120 nM |  |  |  |
| Cc1c(CNc2ccc(Cl)c(Cl)c2)cnc2nc(N)nc(N)c12 | 0.92 nM | 5 nM |  |  |  |
